For 7 compounds, mortality and pest or weed control results are on record in patent US20230028441A1, “NOVEL HETEROARYL-TRIAZOLE COMPOUNDS AS PESTICIDES” (Bayer Aktiengesellschaft, priority 2019, published 2023).

Assay type in all cases: in vivo
The test system of test [1] is caterpillars of the fall army worm (Spodoptera frugiperda). In words: Spodoptera frugiperda spray test (cotton leaves). To be noted: 168 h. The procedure: Solvent: 14 parts by weight of dimethylformamide
Emulsifier: alkylaryl polyglycol ether
To produce a suitable preparation of active compound, 1 part by weight of active compound is mixed with the stated amount of solvent and is diluted with water, containing an emulsifier concentration of 1000 ppm, to the desired concentration. Further test concentrations are prepared by dilution with emulsifier containing water. Ammonium salt and/or penetration enhancer in a dosage of 1000 ppm are added to the desired concentration if necessary.
Cotton leaves (Gossypium hirsutum) are treated by being sprayed with the preparation of the active compound of the desired concentration and are infested with caterpillars of the fall army worm (Spodoptera frugiperda).
After 7 days mortality in % is determined. 100% means all the caterpillars have been killed and 0% means none of the caterpillars have been killed.

Test [2] relates to adult cat fleas (Ctenocephalides felis). In words: Ctenocephalides felis in-vitro contact test, adult cat flea. The settings on record: 5 μg/cm^2 (=500 g/ha), after 48 hours, read-out: efficacy (fleas dead or moribund). In a few lines: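 Efficacy (%) counts fleas that are dead or moribund, meaning unable to escape heat (45-50 °C, ≤5 min) by climbing. Scoring was done 48 h after 5-10 adults were placed at room temperature in glass tubes. The tubes carried a dried acetone film of compound, 5 μg/cm^2 at 900 ppm.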

Test [3] relates to fall armyworm larvae (Spodoptera frugiperda). In words: Spodoptera frugiperda spray test (maize leaf sections). To be noted: 168 h. A digest of the protocol: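 Percent kill of Spodoptera frugiperda larvae was recorded 7 days after infesting dried, treated maize leaf sections. Spray solutions were made from an acetone/DMF compound preparation diluted with 1000 ppm emulsifier-containing water.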

Test [4] deals with adult brown dog ticks (Rhipicephalus sanguineus). As to the kind of experiment: Rhipicephalus sanguineus in-vitro contact test with adult brown dog ticks. The settings on record: after 48 hours, read-out: efficacy (ticks dead or moribund); for pest or weed control at 1 µg/cm2, 100 g/ha: 1 μg/cm^2 (=100 g/ha); for pest or weed control at 5 µg/cm2, 500 g/ha: 5 μg/cm^2 (=500 g/ha). In a few lines: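 Efficacy is the percentage of adult ticks dead or moribund, meaning immotile or uncoordinated and unable to escape 45-50° C. heat within 5 min. Read 48 h after 5-10 ticks were enclosed at room temperature in acetone-coated glass tubes. Dose 5 μg/cm^2, from a 900 ppm coating solution.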

Test [5] deals with larvae of the banded cucumber beetle (Diabrotica balteata). In words: Diabrotica balteata spray test. To be noted: 168 h, after 7 days, wheat seeds, read-out: efficacy (seedlings grown up); for pest or weed control at 32 µg/disc, 100 g/ha: 100 g/ha (=32 μg/well); for pest or weed control at 160 µg/disc, 500 g/ha: 500 g/ha (=160 μg/well). In a few lines:
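Efficacy (%) read at day 7: 100% means seedlings grew like untreated, uninfested controls; 0% means no seedlings grew. Wheat seeds germinated 1 day on agar, sprayed with emulsified compound solution (1000 ppm emulsifier in water), then each well infested with 10-20 larvae.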

In test [6] the test system is cattle tick larvae (Rhipicephalus microplus), strain Parkhurst, resistant against synthetic pyrethroids. As to the kind of experiment: Rhipicephalus (Boophilus) microplus in-vitro contact test, larval cattle tick. The settings on record: 5 μg/cm^2 (=500 g/ha), after 48 hours, read-out: efficacy (larvae dead or moribund). In a few lines:
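Efficacy, 100% meaning all larvae dead or moribund, was judged at 48 h from loss of negative geotactic climbing. Larvae of the Parkhurst strain, 20–50 per tube, were exposed at 27° C and 85% humidity to acetone-coated tube surfaces; 900 ppm corresponded to 5 μg/cm^2.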

The test system of test [7] is larvae of the southern green stink bug (Nezara viridula). In words: Nezara viridula spray test. The settings on record: in Hordeum vulgare, 96 h. In a few lines: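 Percent mortality of southern green stink bug larvae read 4 days after spraying infested Hordeum vulgare. Test solutions: compound in acetone plus dimethylformamide, diluted with emulsifier-containing water (1000 ppm alkylarylpolyglycol ether).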

The test system of test [8] is green peach aphid (Myzus persicae). As to the kind of experiment: Myzus persicae oral test. To be noted: 120 h. A digest of the protocol: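 Readout: % mortality at day 5, where 100% = all aphids dead and 0% = none dead. Feeding via parafilm membrane over compound in IPL41 medium (33%+15% sugar); mixed-age population. Stock in acetone (1:100 w/w), water-diluted.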
In test [9] the test system is adult unfed cat fleas (Ctenocephalides felis). As to the kind of experiment: Ctenocephalides felis oral test. To be noted: 48 h, 100 ppm in cattle blood, after 2 days. In a few lines: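 Percent flea mortality recorded at 2 days. Compound was dissolved in dimethyl sulfoxide and diluted into cattle blood, which ~20 unfed adult cat fleas ingested through parafilm from a 37°C-heated chamber, their own chamber kept at room temperature.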

Test [10] concerns adult engorged female ticks (Rhipicephalus microplus). As to the kind of experiment: Rhipicephalus (Boophilus) microplus injection test. The settings on record: 168 h, egg deposition after 7 days, read-out: efficacy (infertile eggs); for pest or weed control at 0.004 mg: 4 μg/animal; for pest or weed control at 0.02 mg: 20 μg/animal. A digest of the protocol: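 Efficacy is the share of infertile eggs: 100% means none are fertile, 0% means all are fertile. Egg deposition was checked 7 days after injecting 1 μL of DMSO-diluted compound into the abdomen of five engorged female R. microplus, with doubtful eggs kept about 42 days to hatching. The stock was 10 mg in 0.5 mL DMSO.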

The subject of test [11] is brown planthopper (Nilaparvata lugens). In words: Nilaparvata lugens spray test. The settings on record: in Oryza sativa, 96 h. A digest of the protocol:
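Rice plants (Oryza sativa) sprayed with compound in acetone/DMF diluted in water containing 1000 ppm alkylarylpolyglycol ether emulsifier, then infested with planthoppers. Mortality % scored after 4 days (100% = all killed, 0% = none killed).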

The mortality is the percentage killed. High values mean a strong lethal effect, low ones a weak lethal effect. In the case of `C[C@H](NC(=O)c1cc(OC(F)(F)F)cc(C2CC2)c1)c1nc(N)nn1-c1ccc(C#N)cn1` [I-154], the mortality at 20 ppm in test [1] came out at 100%. Further, the pest or weed control at 5 µg/cm2 in test [2] was 100%. In test [3], this compound came in with a mortality at 100 g/ha of 100%. Besides, in test [4], the pest or weed control at 1 µg/cm2, 100 g/ha worked out at 80% and the pest or weed control at 5 µg/cm2, 500 g/ha was determined as 80%. In test [5], the pest or weed control at 32 µg/disc, 100 g/ha was 100%. Further, the pest or weed control at 5 µg/cm2 in [6] is 100%. The same compound yielded a mortality at 500 g/ha in test [7] of 100%.
On to `CNc1nc(C(C)NC(=O)c2cc(Cl)cc(OC(F)(F)F)c2)n(-c2ncccn2)n1` (stereo not shown) [I-099], for which the mortality at 4 ppm in test [8] is 100%. Besides, the mortality at 20 ppm in [1] worked out at 100%. Also, the pest or weed control at 5 µg/cm2 in test [2] is 100%; in test [6] it was 90%. Besides, in test [3], the mortality at 100 g/ha was found to be 100%. In [4], the pest or weed control at 5 µg/cm2, 500 g/ha came out at 80%. For the same compound, the pest or weed control at 32 µg/disc, 100 g/ha in test [5] was found to be 100%. In [9], this compound returned a mortality at 100 ppm of 100%. In addition, the pest or weed control at 0.004 mg in test [10] came out at 100%.
Regarding `CNc1nc([C@H](C)NC(=O)c2cc(Br)cc(C(F)(F)F)c2)n(-c2ncccn2)n1` [I-136], the mortality at 20 ppm in test [1] was determined as 100%. Also, the values for the mortality at 500 g/ha in test [11] and in test [7] were 100% and 90%, respectively. Also, the mortality at 100 g/ha in test [3] stood at 100%. Moreover, in [4], the pest or weed control at 1 µg/cm2, 100 g/ha turned out to be 100%. For the same compound, in test [4], the pest or weed control at 5 µg/cm2, 500 g/ha was found to be 100%. For the same compound, in test [5], the pest or weed control at 32 µg/disc, 100 g/ha stood at 100%. Besides, the pest or weed control at 5 µg/cm2 in test [6] is 100%.
In test [1], `CC(NC(=O)c1cc(Cl)cc(C(F)(F)F)c1)c1nc(NC(=O)C2CC2(F)F)nn1-c1ccc(Cl)cn1` (stereo not shown) [I-018] displayed a mortality at 20 ppm of 100%. Moreover, the pest or weed control at 5 µg/cm2 in test [2] was found to be 100%. Moreover, in test [5], the pest or weed control at 32 µg/disc, 100 g/ha is 100% and the pest or weed control at 160 µg/disc, 500 g/ha worked out at 100%. In test [9], this compound registered a mortality at 100 ppm of 100%. In test [10], the pest or weed control at 0.004 mg is 100% and the pest or weed control at 0.02 mg came out at 100%. Moreover, the pest or weed control at 5 µg/cm2 in test [6] stood at 100%.
As to `CC(NC(=O)c1cc(F)cc(C#N)c1)c1nc(N)nn1-c1ncccn1` (stereo not shown) [I-105], the mortality at 4 ppm in test [8] turned out to be 100%. In [1], this compound registered a mortality at 20 ppm of 100%. Besides, the pest or weed control at 5 µg/cm2 in [2] and in test [6] was 100% throughout. In test [3], this compound registered a mortality at 100 g/ha of 100%. In test [5], the pest or weed control at 32 µg/disc, 100 g/ha was 100%. The same compound registered a mortality at 100 ppm in test [9] of 100%. The pest or weed control at 0.004 mg in [10] was 100%.
As to `CSc1nc(C(C)NC(=O)c2cc(Cl)cc(C(F)(F)F)c2)n(-c2ccc(Cl)cn2)n1` (stereo not shown) [I-062], the mortality at 20 ppm in test [1] is 100%. Besides, in [2], the pest or weed control at 5 µg/cm2 was 100%. In test [3], this compound showed a mortality at 500 g/ha of 100%. Moreover, the pest or weed control at 5 µg/cm2, 500 g/ha in [4] turned out to be 100%. Further, in test [5], the pest or weed control at 32 µg/disc, 100 g/ha worked out at 100% and the pest or weed control at 160 µg/disc, 500 g/ha worked out at 100%. Besides, in [10], the pest or weed control at 0.004 mg is 100% and the pest or weed control at 0.02 mg is 100%. The pest or weed control at 5 µg/cm2 in [6] was 100%. In [7], this compound came in with a mortality at 100 g/ha of 100% and a mortality at 500 g/ha of 100%.
On to `CC(NC(=O)c1cc(Cl)cc(OC(F)(F)F)c1)c1nc(N)nn1-c1ccc(C#N)cn1` (stereo not shown) [I-118], for which the mortality at 4 ppm in test [8] turned out to be 100%. The same compound returned a mortality at 20 ppm in test [1] of 100%. Moreover, the pest or weed control at 5 µg/cm2 in test [2] worked out at 90%; in test [6], 100%. Also, the mortality at 100 g/ha in test [3] stood at 100%. For the same compound, the pest or weed control at 32 µg/disc, 100 g/ha in test [5] was determined as 100%. In [9], this compound yielded a mortality at 100 ppm of 100%. For the same compound, in test [10], the pest or weed control at 0.004 mg is 100%. The compound also returned a mortality at 500 g/ha in test [7] of 100%.
